Source: US4238390A, “Synthesis and biological activity of [D-Thr^2, Δ^3 Pro^5 ]-enkephalinamide” (Hoffmann-La Roche Inc., priority 1979, dated 1980)
Square brackets hold non-standard residues; d marks the D form. Peptide text beside a SMILES is read from it. ΔPro = O=C(O)[C@@H]1C=CCN1

Columns and labels:
5-HTP Diarrhea = assay: Anti-diarrhea activity against 5-HTP diarrhea in CD-1 mice (comparative tests); type: in vivo, Male CD-1 mice; conditions: for anti-diarrhea activity (in words): intravenously at a dose of 132 μ moles/kg
Method: (§1) The anti-diarrhea ED50 values were determined using a computer program "ED50" based on the probit method of D. J. Finney, "Probit Analysis", Cambridge University Press, Cambridge, Great Britain (1971). The average percent inhibition obtained at each dose level of [D-Thr^2, Δ^3 Pro^5 ]-enkephalinamide was used as the response.
Male CD-1 mice were obtained from Charles River, Inc., Wilmington, Massachusetts, and weighted between 18 and 25 grams at the time of use.
All compounds with the exception of 5-HTP were dissolved in sterile 0.9% sodium chloride solution. Distilled water was used as the vehicle for 5-HTP. All compounds were administered to the mice using a constant dosage volume of 0.2 ml/20 gms of body weight.
In the experiment involving naloxone HCl, it or the vehicle were given 5 minutes prior to the administration of β-endorphin.
The amount of diarrhea produced by 5-HTP was determined as follows. Immediately following the administration of 5-HTP, the mice were individually housed in open-bottomed wire cages of a width and length of 8.5 cm and a height of 7.5 cm, resting on preweighed plastic sheets. The mice were removed from the cages 30 minutes after receiving 5-HTP, and any visible urinary discharge present on the plastic sheet was blotted dry. The sheets were then reweighed. The weight increment was considered to represent fecal weight.

[1] = tested on: 5-hydroxytryptophan-induced diarrhea; assay: Anti-diarrhea activity against 5-hydroxytryptophan-induced diarrhea in CF-1 mice; type: in vivo, Male CF-1 mice; conditions: for Mean Fecal Wt. (mg) + S.E.: 30 s before 10 mg/kg 5-HTP ip, 30-minute test period
Method: Male CF-1 mice were used. The mice were housed at least one week prior to use. At the time of use, the mice were 49 days of age and weighed between 21-25 grams. The mice received, intravenously, vehicle, or the indicated amounts of, [D-Thr^2, Δ^3 Pro^5 ]enkephalinamide dissolved in sterile 0.9% sodium chloride. Thirty seconds later, 10 mg/kg of DL-5-hydroxytryptophan was administered intraperitoneally using distilled water as the vehicle. The mice were then immediately placed in individual open-bottomed wire cages resting on preweighed parafilm sheets. The mice were removed from their cages 30 minutes after receiving the DL-5-hydroxytryptophan. Any fecal material adhering to the sides of the wire cage was collected and placed on the parafilm sheets, and any visible urine on the sheets was blotted dry. The sheets were weighed, and the weight increment was considered to represent the amount of feces discharged during the 30-minute test period.
as §1

Guinea Pig Ileum = assay: Opiate activity in guinea pig ileum assay; type: cell-based
Method: The opiate activity of [2-D-threonine, 5-(3,4-dehydroproline)]-enkephalinamide was measured according to the method of H. W. Kosterelitz, R. J. Lydon and H. A. Watt, British Journal of Pharmacology, volume 39 (1970), pp. 398-413. The results of the assay are shown in Table II and are compared with the opiate activities for human β-endorphin and Met-enkephaline.

[2] = cited from earlier work; for analgesic activity (in words): prior-art report
[3] = iv, 30 seconds prior to 10 mg/kg 5-HTP ip

CN1CC[C@]23c4c5ccc(O)c4O[C@H]2[C@@H](O)C=C[C@H]3[C@H]1C5.O=S(=O)(O)O [Morphine Sulfate]
prevention of 5-HTP diarrhea (in words) (5-HTP Diarrhea; intravenously or subcutaneously administered): effective in preventing this diarrhea

C[C@H](O)[C@@H](NC(=O)[C@@H](N)Cc1ccc(O)cc1)C(=O)NCC(=O)N[C@@H](Cc1ccccc1)C(=O)N1CC=C[C@H]1C(N)=O [[D-Thr^2, Δ^3 Pro^5]-enkephalinamide, [2-D-threonine, 5-(3,4-dehydroproline)]-enkephalinamide] (H-Y[dT]GF[ΔPro]-NH2)
Mean Fecal Wt. (mg) + S.E. ([1]; 1.2 μm/kg iv): 117.3 ± 11.06 mg | % Inhibition ([1]; 1.2 μm/kg iv, 5-HTP 10 mg/kg ip): 34.6% | Mean Fecal Wt. (mg) + S.E. ([1]; 3.60 μm/kg iv): 80.1 ± 22.43 mg | % Inhibition ([1]; 3.60 μm/kg iv, 5-HTP 10 mg/kg ip): 55.3% | Mean Fecal Wt. (mg) + S.E. ([1]; 12.05 μm/kg iv): 49.8 ± 14.44 mg | % Inhibition ([1]; 12.05 μm/kg iv, 5-HTP 10 mg/kg ip): 72.2% | Mean Fecal Wt. (mg) + S.E. ([1]; 24.10 μm/kg iv): 37.9 ± 12.81 mg | % Inhibition ([1]; 24.10 μm/kg iv, 5-HTP 10 mg/kg ip): 78.9% | inhibition of 5-hydroxytryptophan-induced diarrhea (in words) ([1]; by intravenous injection): potent agent | ED50 μm/kg + S.E. ([1]; iv, probit method, 5-HTP 10 mg/kg ip): 2.9 ± 1.74 μm/kg | IC50 (Guinea Pig Ileum): 0.0093 µM | Relative Potency (Guinea Pig Ileum; human β-endorphin = 100, 5-(3,4-dehydroproline)]-enkephalinamide): 330 | Relative Potency (Guinea Pig Ileum; human β-endorphin = 100, listed as Tyr-D-Thr-Gly-Phe-Δ Pro-NH2): 336

Human β-Endorphin
% Inhibition of 5-HTP Diarrhea ± S.E. (5-HTP Diarrhea; 0.43 μmoles/kg iv): 25.6 ± 16.1% | % Inhibition of 5-HTP Diarrhea ± S.E. (5-HTP Diarrhea; 0.86 μmoles/kg iv): 46.6 ± 16.0% | % Inhibition of 5-HTP Diarrhea ± S.E. (5-HTP Diarrhea; 1.0 μmoles/kg sc): 35.3 ± 14.2% | % Inhibition of 5-HTP Diarrhea ± S.E. (5-HTP Diarrhea; 1.73 μmoles/kg iv): 58.3 ± 12.6% | % Inhibition of 5-HTP Diarrhea ± S.E. (5-HTP Diarrhea; 3.0 μmoles/kg sc): 51.7 ± 9.9% | % Inhibition of 5-HTP Diarrhea ± S.E. (5-HTP Diarrhea; 3.46 μmoles/kg iv): 62.2 ± 10.3% | % Inhibition of 5-HTP Diarrhea ± S.E. (5-HTP Diarrhea; 6.0 μmoles/kg sc): 61.0 ± 6.9% | % Inhibition of 5-HTP Diarrhea ± S.E. (5-HTP Diarrhea; 6.92 μmoles/kg iv): 66.4 ± 8.0% | % Inhibition of 5-HTP Diarrhea ± S.E. (5-HTP Diarrhea; 9.0 μmoles/kg sc): 70.3 ± 8.7% | % Inhibition of 5-HTP Diarrhea ± S.E. (5-HTP Diarrhea; 13.84 μmoles/kg iv): 92.2 ± 4.8% | Anti-Diarrhea ED50 ± S.E. (5-HTP Diarrhea; [3]): 1.42 ± 0.636 µmol/kg | Anti-Diarrhea ED50 ± S.E. (5-HTP Diarrhea; sc, 1 minute prior to 10 mg/kg 5-HTP ip): 2.65 ± 1.425 µmol/kg | IC50 (Guinea Pig Ileum): 0.031 µM | Relative Potency (Guinea Pig Ileum; human β-endorphin = 100): 100

Leu-Enkephalin
% Inhibition of 5-HTP Diarrhea ± S.E. (5-HTP Diarrhea; 66 μmoles/kg iv): 0.0 ± 13.1% | % Inhibition of 5-HTP Diarrhea ± S.E. (5-HTP Diarrhea; 132 μmoles/kg iv): 10.4 ± 7.7% | anti-diarrhea activity (in words) (5-HTP Diarrhea): only weak anti-diarrhea activity | Anti-Diarrhea ED50 ± S.E. (5-HTP Diarrhea; [3]): > 132 µmol/kg

Met-Enkephalin
% Inhibition of 5-HTP Diarrhea ± S.E. (5-HTP Diarrhea; 66 μmoles/kg iv): 21.3 ± 15.9% | % Inhibition of 5-HTP Diarrhea ± S.E. (5-HTP Diarrhea; 132 μmoles/kg iv): 23.7 ± 9.6% | anti-diarrhea activity (in words) (5-HTP Diarrhea): only weak anti-diarrhea activity | Anti-Diarrhea ED50 ± S.E. (5-HTP Diarrhea; [3]): > 132 µmol/kg | IC50 (Guinea Pig Ileum): 0.124 µM | Relative Potency (Guinea Pig Ileum; human β-endorphin = 100): 25

[D-Ala^2, MePhe^4, MetO^5 -ol] enkephalin
oral activity (in words) ([2]; Roemer et al., Nature 268, 547 (1977)): orally active | analgesic activity (in words) [2]: most potent analgesic of the group

[D-Met^2, Pro^5 ]-enkephalinamide [D-Met^2 -Pro^5 -Enkephalin-Amide]
% Inhibition of 5-HTP Diarrhea ± S.E. (5-HTP Diarrhea; 0.20 μmoles/kg iv): 1.7 ± 13.2% | % Inhibition of 5-HTP Diarrhea ± S.E. (5-HTP Diarrhea; 0.60 μmoles/kg iv): 32.3 ± 13.4% | % Inhibition of 5-HTP Diarrhea ± S.E. (5-HTP Diarrhea; 1.20 μmoles/kg iv): 36.9 ± 11.0% | % Inhibition of 5-HTP Diarrhea ± S.E. (5-HTP Diarrhea; 2.40 μmoles/kg iv): 66.0 ± 7.6% | % Inhibition of 5-HTP Diarrhea ± S.E. (5-HTP Diarrhea; 4.30 μmoles/kg iv): 88.6 ± 7.7% | Anti-Diarrhea ED50 ± S.E. (5-HTP Diarrhea; [3]): 1.38 ± 0.310 µmol/kg | analgesic activity (in words) [2]: potent analgesic agent

[D-Met^2, Thz^5 ]-enkephalinamide
analgesic activity (in words) [2]: potent analgesic agents

[D-Thr^2, Thz^5 ]-enkephalinamide
analgesic activity (in words) [2]: potent analgesic agents
